Data reported in ChEMBL document CHEMBL1126890, “A tight binding inhibitor of 5-aminoimidazole ribonucleotide carboxylase” (J Med Chem, 1993).

What was measured:
Design in all cases: species or system Aves
[1] = Kobs versus inhibitory concentration
[2] = Changes in free energy concentration
[3] = Inhibition of Avian AIR carboxylase in presence of 0.5 nM of the compound

Question: For `Nc1c([N+](=O)[O-])ncn1[C@@H]1O[C@H](COP(=O)(O)O)[C@@H](O)[C@H]1O`, which Ki [1] is on record?
Answer: 1.4 nM

Question: And the Ki [2]?
Answer: 1.6 nM

Question: What about the Ki [3] of the same molecule?
Answer: 1.3 nM
